# Where “and” joins values, the source holds several entries; their conditions need not be identical. Equal entries are not always repeated. Numbers after ± are expanded uncertainties.
# Conditions: 307.15 K, Fluid (supercritical or subcritical phases); for mass density: Buoyancy - hydrostatic balance with magnetic suspension - one sinker; for viscosity: vibrating wire
compound,measurement,setting,value
CC [ethane],mass density,2134.4 kPa,30.049 ± 0.067 kg/m3
same,viscosity,2134.4 kPa,0.01007 ± 6e-05 mPa·s
same,mass density,2134.5 kPa,30.051 ± 0.067 kg/m3
same,viscosity,2134.5 kPa,0.01006 ± 6e-05 mPa·s
same,mass density,2653.6 kPa,39.629 ± 0.085 kg/m3
same,viscosity,2653.6 kPa,0.01038 ± 6.2e-05 mPa·s
same,mass density,2653.7 kPa,39.631 ± 0.085 kg/m3
same,viscosity,2653.7 kPa,0.01038 ± 6.2e-05 mPa·s
same,mass density,2674.2 kPa,40.039 ± 0.096 kg/m3 and 40.038 ± 0.096 kg/m3
same,viscosity,2674.2 kPa,0.01034 ± 6.2e-05 mPa·s
same,mass density,2674.3 kPa,40.04 ± 0.096 kg/m3
same,viscosity,2674.3 kPa,0.01034 ± 6.2e-05 mPa·s
same,mass density,3138.1 kPa,50.006 ± 0.13 kg/m3
same,viscosity,3138.1 kPa,0.01066 ± 6.5e-05 mPa·s
same,mass density,3138.2 kPa,50.008 ± 0.13 kg/m3
same,viscosity,3138.2 kPa,0.01066 ± 6.5e-05 mPa·s
same,mass density,3138.4 kPa,50.012 ± 0.13 kg/m3
same,viscosity,3138.4 kPa,0.01066 ± 6.5e-05 mPa·s
same,mass density,3539.6 kPa,60.147 ± 0.18 kg/m3
same,viscosity,3539.6 kPa,0.01103 ± 7e-05 mPa·s
same,mass density,3539.8 kPa,60.154 ± 0.18 kg/m3
same,viscosity,3539.8 kPa,0.01103 ± 7e-05 mPa·s
same,mass density,3815.6 kPa,68.316 ± 0.15 kg/m3
same,viscosity,3815.6 kPa,0.01142 ± 6.9e-05 mPa·s
same,mass density,3821.7 kPa,68.511 ± 0.15 kg/m3
same,viscosity,3821.7 kPa,0.01143 ± 6.9e-05 mPa·s
same,mass density,3889 kPa,70.711 ± 0.25 kg/m3
same,viscosity,3889 kPa,0.01145 ± 8e-05 mPa·s
same,mass density,3892.4 kPa,70.823 ± 0.25 kg/m3
same,viscosity,3892.4 kPa,0.01146 ± 8e-05 mPa·s
same,mass density,4150.5 kPa,80.267 ± 0.33 kg/m3
same,viscosity,4150.5 kPa,0.01188 ± 9.7e-05 mPa·s
same,mass density,4151.6 kPa,80.309 ± 0.33 kg/m3
same,viscosity,4151.6 kPa,0.01189 ± 9.8e-05 mPa·s
same,mass density,4152 kPa,80.328 ± 0.33 kg/m3
same,viscosity,4152 kPa,0.01189 ± 9.8e-05 mPa·s
same,mass density,4152.4 kPa,80.342 ± 0.33 kg/m3
same,viscosity,4152.4 kPa,0.01189 ± 9.7e-05 mPa·s
same,mass density,4328.6 kPa,88.031 ± 0.45 kg/m3
same,viscosity,4328.6 kPa,0.01226 ± 0.00013 mPa·s
same,mass density,4329.5 kPa,88.072 ± 0.45 kg/m3
same,viscosity,4329.5 kPa,0.01226 ± 0.00013 mPa·s
same,mass density,4330.1 kPa,88.099 ± 0.45 kg/m3
same,viscosity,4330.1 kPa,0.01227 ± 0.00013 mPa·s
same,mass density,4330.4 kPa,88.116 ± 0.45 kg/m3
same,viscosity,4330.4 kPa,0.01226 ± 0.00013 mPa·s
same,mass density,4331.5 kPa,88.167 ± 0.45 kg/m3
same,viscosity,4331.5 kPa,0.01226 ± 0.00013 mPa·s
same,mass density,4514.6 kPa,97.86 ± 0.67 kg/m3
same,viscosity,4514.6 kPa,0.01277 ± 0.00019 mPa·s
same,mass density,4516.2 kPa,97.954 ± 0.67 kg/m3
same,viscosity,4516.2 kPa,0.01278 ± 0.00019 mPa·s
same,mass density,4517.4 kPa,98.024 ± 0.67 kg/m3
same,viscosity,4517.4 kPa,0.01279 ± 0.00019 mPa·s
same,mass density,4518.3 kPa,98.079 ± 0.67 kg/m3
same,viscosity,4518.3 kPa,0.01279 ± 0.00019 mPa·s
same,mass density,4519.2 kPa,98.129 ± 0.67 kg/m3
same,viscosity,4519.2 kPa,0.01279 ± 0.00019 mPa·s
same,mass density,4557.7 kPa,100.499 ± 0.33 kg/m3
same,viscosity,4557.7 kPa,0.01302 ± 8.1e-05 mPa·s
same,mass density,4558.1 kPa,100.521 ± 0.33 kg/m3
same,viscosity,4558.1 kPa,0.01302 ± 8.1e-05 mPa·s
same,mass density,4736.3 kPa,113.82 ± 1.2 kg/m3
same,viscosity,4736.3 kPa,0.01371 ± 0.00037 mPa·s
same,mass density,4736.7 kPa,113.852 ± 1.2 kg/m3
same,viscosity,4736.7 kPa,0.01371 ± 0.00037 mPa·s
same,mass density,4939.2 kPa,140.104 ± 2.4 kg/m3
same,viscosity,4939.2 kPa,0.01552 ± 0.00081 mPa·s
same,mass density,4939.3 kPa,140.112 ± 2.4 kg/m3
same,viscosity,4939.3 kPa,0.01552 ± 0.00081 mPa·s
same,mass density,5008.9 kPa,160.457 ± 0.35 kg/m3 and 160.473 ± 0.35 kg/m3
same,viscosity,5008.9 kPa,0.01729 ± 0.0001 mPa·s
same,mass density,5019.4 kPa,165.641 ± 8.3 kg/m3 and 165.625 ± 8.3 kg/m3
same,viscosity,5019.4 kPa,0.01766 ± 0.0034 mPa·s
same,mass density,5019.5 kPa,165.654 ± 8.3 kg/m3
same,viscosity,5019.5 kPa,0.01767 ± 0.0034 mPa·s
same,mass density,5042.9 kPa,182.964 ± 15 kg/m3
same,viscosity,5042.9 kPa,0.01932 ± 0.0068 mPa·s
same,mass density,5043 kPa,183.065 ± 15 kg/m3 and 183.021 ± 15 kg/m3
same,viscosity,5043 kPa,0.01933 ± 0.0068 mPa·s and 0.01932 ± 0.0068 mPa·s
same,mass density,5050.1 kPa,191.037 ± 0.42 kg/m3
same,viscosity,5050.1 kPa,0.02022 ± 0.00012 mPa·s
same,mass density,5050.2 kPa,191.169 ± 0.42 kg/m3
same,viscosity,5050.2 kPa,0.02023 ± 0.00012 mPa·s
same,mass density,5051 kPa,192.154 ± 15 kg/m3 and 192.131 ± 15 kg/m3
same,viscosity,5051 kPa,0.02026 ± 0.0067 mPa·s
same,mass density,5051.1 kPa,192.228 ± 15 kg/m3 and 192.185 ± 15 kg/m3
same,viscosity,5051.1 kPa,0.02028 ± 0.0067 mPa·s
same,mass density,5058.7 kPa,202.521 ± 14 kg/m3 and 202.456 ± 14 kg/m3
same,viscosity,5058.7 kPa,0.02133 ± 0.0066 mPa·s and 0.02132 ± 0.0066 mPa·s
same,mass density,5058.8 kPa,202.654 ± 14 kg/m3 and 202.599 ± 14 kg/m3 and 202.583 ± 14 kg/m3
same,viscosity,5058.8 kPa,0.02137 ± 0.0066 mPa·s and 0.02136 ± 0.0066 mPa·s and 0.02133 ± 0.0066 mPa·s
same,mass density,5060.1 kPa,204.501 ± 0.44 kg/m3
same,viscosity,5060.1 kPa,0.02168 ± 0.00013 mPa·s
same,mass density,5060.2 kPa,204.534 ± 0.45 kg/m3 and 204.598 ± 0.45 kg/m3
same,viscosity,5060.2 kPa,0.02168 ± 0.00013 mPa·s
same,mass density,5060.3 kPa,204.743 ± 14 kg/m3 and 204.709 ± 14 kg/m3
same,viscosity,5060.3 kPa,0.02159 ± 0.0066 mPa·s and 0.02158 ± 0.0066 mPa·s
same,mass density,5060.4 kPa,204.805 ± 14 kg/m3
same,viscosity,5060.4 kPa,0.02159 ± 0.0066 mPa·s
same,mass density,5062 kPa,207.173 ± 0.45 kg/m3
same,viscosity,5062 kPa,0.02199 ± 0.00013 mPa·s
same,mass density,5062.1 kPa,207.31 ± 0.45 kg/m3
same,viscosity,5062.1 kPa,0.02199 ± 0.00013 mPa·s
same,mass density,5062.2 kPa,207.441 ± 0.45 kg/m3
same,viscosity,5062.2 kPa,0.022 ± 0.00013 mPa·s
same,mass density,5064.1 kPa,209.963 ± 14 kg/m3 and 209.982 ± 14 kg/m3 and 209.961 ± 14 kg/m3
same,viscosity,5064.1 kPa,0.02215 ± 0.0066 mPa·s and 0.02216 ± 0.0066 mPa·s
same,mass density,5064.2 kPa,210.139 ± 14 kg/m3 and 210.11 ± 14 kg/m3
same,viscosity,5064.2 kPa,0.02219 ± 0.0066 mPa·s
same,mass density,5065.4 kPa,211.657 ± 0.46 kg/m3 and 211.736 ± 0.46 kg/m3
same,viscosity,5065.4 kPa,0.02255 ± 0.00014 mPa·s
same,mass density,5065.5 kPa,211.805 ± 0.46 kg/m3
same,viscosity,5065.5 kPa,0.02255 ± 0.00014 mPa·s
same,mass density,5105 kPa,242.924 ± 8.5 kg/m3 and 242.96 ± 8.5 kg/m3
same,viscosity,5105 kPa,0.02579 ± 0.0043 mPa·s
same,mass density,5105.1 kPa,243 ± 8.5 kg/m3
same,viscosity,5105.1 kPa,0.02579 ± 0.0043 mPa·s
same,mass density,5105.2 kPa,243.012 ± 8.5 kg/m3
same,viscosity,5105.2 kPa,0.0258 ± 0.0043 mPa·s
same,mass density,5160.6 kPa,259.321 ± 1.9 kg/m3
same,viscosity,5160.6 kPa,0.02781 ± 0.0013 mPa·s
same,mass density,5160.9 kPa,259.389 ± 1.9 kg/m3
same,viscosity,5160.9 kPa,0.02781 ± 0.0013 mPa·s
same,mass density,5161 kPa,259.401 ± 1.9 kg/m3 and 259.396 ± 1.9 kg/m3
same,viscosity,5161 kPa,0.02781 ± 0.0013 mPa·s and 0.0278 ± 0.0013 mPa·s
same,mass density,5187.1 kPa,264.206 ± 0.57 kg/m3
same,viscosity,5187.1 kPa,0.02852 ± 0.00017 mPa·s
same,mass density,5187.4 kPa,264.252 ± 0.57 kg/m3
same,viscosity,5187.4 kPa,0.02852 ± 0.00017 mPa·s
same,mass density,5187.6 kPa,264.291 ± 0.57 kg/m3
same,viscosity,5187.6 kPa,0.02852 ± 0.00017 mPa·s
same,mass density,5348.1 kPa,282.102 ± 0.81 kg/m3

# Source: the NIST ThermoML archive (doi:10.1021/je101178u)
